# Where “and” joins values, the source holds several entries; their conditions need not be identical. Equal entries are not always repeated. Inconclusive results and toxic doses are left out. Square brackets hold non-standard residues; d marks the D form. Peptide text beside a SMILES is read from it. * marks the point of attachment. Cbz = O=C(OCc1ccccc1)*; Nva = CCC[CH](N)C(=O)O
# Test system: P388 leukemia ip, CD2F1 mice, survival T/C
# Test: NCI In Vivo Anticancer Drug Screen. Data for tumor model P388 Leukemia (intraperitoneal) in CD2F1 (CDF1) mice
# Conditions: endpoint: median survival time, higher = longer survival
# Outline: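 Mice carrying the transplanted tumor received test compound or vehicle. Survival was recorded in each group, and the value is the treated-group measurement divided by that of the vehicle-treated control group.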
# [1] = dose: 3.12 mg/kg/injection, schedule: Q01DX009 (ip), vehicle: saline
# [2] = dose: 6.25 mg/kg/injection, schedule: Q01DX009 (ip), vehicle: saline
# [3] = dose: 12.5 mg/kg/injection, schedule: Q01DX009 (ip), vehicle: saline
# [4] = dose: 25.0 mg/kg/injection, schedule: Q01DX009 (ip), vehicle: saline
# [5] = dose: 50.0 mg/kg/injection, schedule: Q01DX009 (ip), vehicle: saline with Tween-80
# [6] = dose: 100.0 mg/kg/injection, schedule: Q01DX009 (ip), vehicle: saline with Tween-80
# [7] = dose: 200.0 mg/kg/injection, schedule: Q01DX009 (ip), vehicle: saline with Tween-80
# [8] = dose: 50.0 mg/kg/injection, schedule: Q01DX005 (ip), vehicle: saline with Tween-80
# [9] = dose: 100.0 mg/kg/injection, schedule: Q01DX005 (ip), vehicle: saline with Tween-80
# [10] = dose: 200.0 mg/kg/injection, schedule: Q01DX005 (ip), vehicle: saline with Tween-80
# [11] = dose: 60.0 mg/kg/injection, schedule: Q01DX005 (ip), vehicle: saline with Tween-80
# [12] = dose: 120.0 mg/kg/injection, schedule: Q01DX005 (ip), vehicle: saline with Tween-80
# [13] = dose: 240.0 mg/kg/injection, schedule: Q01DX005 (ip), vehicle: saline with Tween-80
# [14] = dose: 50.0 mg/kg/injection, schedule: Q01DX009 (ip), vehicle: Klucel (hydroxypropylcellulose) (HPC)
# [15] = dose: 50.0 mg/kg/injection, schedule: Q01DX009 (ip), vehicle: saline
smiles,measurement,setting,value
CCCC(NC(=O)OCc1ccccc1)C(=O)NC(C(=O)O)C(C)CC (centres undefined) (Cbz-[Nva]-Ile-OH; configuration not given here),T/C,"dose: 50.0 mg/kg/injection, schedule: Q01DX005 (ip), vehicle: Klucel (hydroxypropylcellulose) (HPC)",100 % of control
same,T/C,"dose: 100.0 mg/kg/injection, schedule: Q01DX005 (ip), vehicle: Klucel (hydroxypropylcellulose) (HPC)",100 % of control
same,T/C,"dose: 200.0 mg/kg/injection, schedule: Q01DX005 (ip), vehicle: Klucel (hydroxypropylcellulose) (HPC)",101 % of control
C[C@H]1CN[C@@H]2[C@@H](C)[C@H]3[C@@H](C[C@H]4[C@@H]5CC[C@H]6C[C@@H](N)CC[C@]6(C)[C@H]5CC[C@]34C)O[C@@]2(O)C1,T/C,[1],103 % of control
same,T/C,[2],94 % of control
same,T/C,[3],100 % of control
same,T/C,[4],98 % of control
COc1cccc(CSC(C(=O)O)c2ccccc2)c1 (centres undefined),T/C,[5],107 % of control
same,T/C,[6],101 % of control
same,T/C,[7],117 % of control
C(=NCCN=CC1CCCC[N-]1)C1CCCC[N-]1.[Cu+2].[O-][Cl+3]([O-])([O-])O (centres undefined),T/C,"dose: 12.5 mg/kg/injection, schedule: Q01DX009 (ip), vehicle: saline with Tween-80",115 % of control
same,T/C,"dose: 25.0 mg/kg/injection, schedule: Q01DX009 (ip), vehicle: saline with Tween-80",98 % of control
O=[N+]([O-])c1cccc(/C=C/S(=O)(=O)Cc2ccccc2)c1,T/C,[8],101 % of control
same,T/C,[9],100 % of control
same,T/C,[10],92 % of control
CCCCNc1ccc(-c2c(N)nc(N)nc2CC)cc1[N+](=O)[O-],T/C,[11],111 % of control and 118 % of control
same,T/C,[12],121 % of control
same,T/C,[13],206 % of control
same,T/C,"dose: 480.0 mg/kg/injection, schedule: Q01DX005 (ip), vehicle: saline with Tween-80",158 % of control
CCOC(=O)c1cnc2ccc(C3CCCCC3)cc2c1Nc1ccc2c(c1)OCO2,T/C,[11],99 % of control
same,T/C,[12],91 % of control
same,T/C,[13],91 % of control
O=C(O)c1ccc2c(c1)C(=O)c1c(O)ccc(O)c1C2=O,T/C,[5],92 % of control
same,T/C,[6],103 % of control
same,T/C,[7],103 % of control
N#Cc1c(-c2ccc(Cl)cc2)c(-c2ccc(Cl)cc2)nn(CCOC(=O)CCC(=O)OCCn2nc(-c3ccc(Cl)cc3)c(-c3ccc(Cl)cc3)c(C#N)c2=O)c1=O,T/C,"dose: 25.0 mg/kg/injection, schedule: Q04DX002 (ip), vehicle: distilled water + Tween-80",95 % of control
same,T/C,"dose: 50.0 mg/kg/injection, schedule: Q04DX002 (ip), vehicle: distilled water + Tween-80",89 % of control
same,T/C,"dose: 100.0 mg/kg/injection, schedule: Q04DX002 (ip), vehicle: distilled water + Tween-80",91 % of control
CCCCCCCCCCCCCCOCCS(=O)(=O)O,T/C,[11],86 % of control
same,T/C,[13],100 % of control
C/C=C/C=C/C(=O)Nc1ncc([N+](=O)[O-])s1,T/C,[14],103 % of control
same,T/C,"dose: 100.0 mg/kg/injection, schedule: Q01DX009 (ip), vehicle: Klucel (hydroxypropylcellulose) (HPC)",104 % of control
same,T/C,"dose: 200.0 mg/kg/injection, schedule: Q01DX009 (ip), vehicle: Klucel (hydroxypropylcellulose) (HPC)",109 % of control
C[As](C)SCC(N)C(=O)O (centres undefined),T/C,"dose: 12.5 mg/kg/injection, schedule: Q01DX009 (ip), vehicle: Klucel (hydroxypropylcellulose) (HPC)",107 % of control
same,T/C,"dose: 25.0 mg/kg/injection, schedule: Q01DX009 (ip), vehicle: Klucel (hydroxypropylcellulose) (HPC)",106 % of control
same,T/C,[14],103 % of control and 110 % of control
O=NNc1ccc(Cl)nc1,T/C,[1],109 % of control
same,T/C,[2],110 % of control
same,T/C,[3],106 % of control
same,T/C,[4],106 % of control
same,T/C,[15],107 % of control
COc1ccc(C2SCC(=O)N2c2nncs2)cc1F (centres undefined),T/C,"dose: 60.0 mg/kg/injection, schedule: Q01DX005 (ip), vehicle: Klucel (hydroxypropylcellulose) (HPC)",92 % of control
same,T/C,"dose: 120.0 mg/kg/injection, schedule: Q01DX005 (ip), vehicle: Klucel (hydroxypropylcellulose) (HPC)",96 % of control
same,T/C,"dose: 240.0 mg/kg/injection, schedule: Q01DX005 (ip), vehicle: Klucel (hydroxypropylcellulose) (HPC)",92 % of control
COc1cccc(C[n+]2ccccc2C#N)c1OC,T/C,"dose: 3.12 mg/kg/injection, schedule: Q04DX002 (ip), vehicle: saline",101 % of control
same,T/C,"dose: 6.25 mg/kg/injection, schedule: Q04DX002 (ip), vehicle: saline",102 % of control
same,T/C,"dose: 12.5 mg/kg/injection, schedule: Q04DX002 (ip), vehicle: saline",103 % of control and 92 % of control
C[CH2][Sn](=[O])[CH2]C,T/C,[4],154 % of control
C=C[C@H](c1ccccc1O)c1cc(O)c(OC)cc1OC,T/C,"dose: 31.0 mg/kg/injection, schedule: Q01DX005 (ip), vehicle: Klucel (hydroxypropylcellulose) (HPC)",103 % of control
same,T/C,"dose: 62.0 mg/kg/injection, schedule: Q01DX005 (ip), vehicle: Klucel (hydroxypropylcellulose) (HPC)",103 % of control
same,T/C,"dose: 124.0 mg/kg/injection, schedule: Q01DX005 (ip), vehicle: Klucel (hydroxypropylcellulose) (HPC)",93 % of control
same,T/C,"dose: 248.0 mg/kg/injection, schedule: Q01DX005 (ip), vehicle: Klucel (hydroxypropylcellulose) (HPC)",94 % of control
Nc1ccn(C2CC(O)C(CO)O2)c(=O)n1 (centres undefined),T/C,"dose: 4.6 mg/kg/injection, schedule: Q01DX009 (ip), vehicle: water",95 % of control
same,T/C,"dose: 9.38 mg/kg/injection, schedule: Q01DX009 (ip), vehicle: water",100 % of control
same,T/C,"dose: 18.75 mg/kg/injection, schedule: Q01DX009 (ip), vehicle: water",105 % of control and 87 % of control
same,T/C,"dose: 37.5 mg/kg/injection, schedule: Q01DX009 (ip), vehicle: water",112 % of control
same,T/C,"dose: 75.0 mg/kg/injection, schedule: Q01DX009 (ip), vehicle: water",96 % of control
same,T/C,"dose: 150.0 mg/kg/injection, schedule: Q01DX009 (ip), vehicle: water",103 % of control
c1cnc2c(c1)Oc1nc3ccccc3nc1S2,T/C,[8],99 % of control
same,T/C,[9],98 % of control
same,T/C,[10],96 % of control
COC(=O)OC(C#N)c1ccc([N+](=O)[O-])cc1 (centres undefined),T/C,[3],99 % of control and 88 % of control
same,T/C,[4],93 % of control and 97 % of control
same,T/C,[15],90 % of control and 97 % of control
same,T/C,"dose: 50.0 mg/kg/injection, schedule: Q01DX009 (ip), vehicle: suspension in saline",97 % of control
C=CCN=C(N)S[As]1c2ccccc2Oc2ccccc21,T/C,[15],100 % of control
same,T/C,"dose: 100.0 mg/kg/injection, schedule: Q01DX009 (ip), vehicle: saline",98 % of control
same,T/C,"dose: 200.0 mg/kg/injection, schedule: Q01DX009 (ip), vehicle: saline",102 % of control
CC(=O)C1C(=O)C(=O)N(c2ccc(O)c(C(=O)O)c2)C1=O (centres undefined),T/C,"dose: 100.0 mg/kg/injection, schedule: Q04DX002 (ip), vehicle: saline with Tween-80",100 % of control
same,T/C,"dose: 200.0 mg/kg/injection, schedule: Q04DX002 (ip), vehicle: saline with Tween-80",94 % of control
same,T/C,"dose: 400.0 mg/kg/injection, schedule: Q04DX002 (ip), vehicle: saline with Tween-80",93 % of control
COc1cccc2cc(-n3nnc4cc([N+](=O)[O-])ccc43)c(=O)oc12,T/C,"dose: 12.5 mg/kg/injection, schedule: Q01DX005 (ip), vehicle: saline with Tween-80",95 % of control
same,T/C,"dose: 25.0 mg/kg/injection, schedule: Q01DX005 (ip), vehicle: saline with Tween-80",93 % of control
same,T/C,[8],92 % of control and 95 % of control
same,T/C,[9],97 % of control
same,T/C,[10],98 % of control
CCCCCCCCCCCCCCCCC1CCCC1C1CCCC1 (centres undefined),T/C,"dose: 12.5 mg/kg/injection, schedule: Q01DX001 (ip), vehicle: saline with Tween-80",104 % of control
same,T/C,"dose: 25.0 mg/kg/injection, schedule: Q01DX001 (ip), vehicle: saline with Tween-80",104 % of control
same,T/C,"dose: 50.0 mg/kg/injection, schedule: Q01DX001 (ip), vehicle: saline with Tween-80",104 % of control

# — PubChem BioAssay AID330 (DTP/NCI, 2004)
